Assay results taken from PMC11984407, “A natural small molecule isoginkgetin alleviates hypercholesterolemia and atherosclerosis by targeting ACLY” (Theranostics, 2025).

Columns and labels:
[1] = system: primary mouse hepatocytes; test: Nile Red staining of primary hepatocytes from high fat diet mice; format: cell-based; conditions: varying concentrations, 12 h, hepatocytes from 16-week high fat diet mice
Source text: Primary hepatocytes were isolated from male C57BL/6J mice fed a high-fat diet (HFD, 60 kcal% fat, 20 kcal% protein, 20 kcal% carbohydrate; D12492; RESEARCH DIETS, New Brunswick, NJ, USA) for 16 weeks according to our previous study. At the end of experiment, the mice were initially anaesthetized and subsequently subjected to perfusion with Liver Perfusion Medium (17701-038; Thermo Fisher Scientific, Waltham, MA, USA) via the portal vein, followed by Liver Digestion Medium (17701-034, Thermo Fisher Scientific, Waltham, MA, USA). Following perfusion, the liver was extracted and passed through a 100 μm cell strainer. The resulting cells were subjected to centrifugation at 50×g for 1 min, after which cells were incubated in DMEM supplemented with 10% FBS (F05-001-B160216; Bio-One Biotechnology, Guangzhou, China) and 1% penicillin-streptomycin (15140-122; Gibco by Invitrogen, Carlsbad, CA, USA) at 37 °C.
(§1) For the Nile Red staining procedure, primary mouse hepatocytes were treated with IOSGK at varying concentrations for a period of 12 h. Subsequently, the cells were fixed with 4% paraformaldehyde (PFA) and stained with Nile Red (N1142, Invitrogen, Carlsbad, CA, USA). The intracellular accumulation of lipids was visualized and quantified using a laser scanning confocal microscope (TCS SP8; Leica, Wetzlar, Germany).

[2] = Copper-induced LDL oxidation, agarose gel electrophoresis; conditions: varying concentrations, copper 5 μM
Description: Prior to oxidation, EDTA was removed from LDL solutions (YB-001; Yiyuan Biotechnologies, Guangzhou, China). Subsequently, LDL solutions at a concentration of 0.2 mg/mL were incubated with varying concentrations of ISOGK in PBS for one h at 37 °C. The oxidation process was initiated by combining both native LDL and LDL pretreated with ISOGK with copper sulfate (99.0% purity; Jinshanting New Chemical Reagent Factory, Shanghai, China) to achieve a final copper concentration of 5 μM in PBS. This mixture was then incubated at 37 °C. Agarose gel electrophoresis was performed utilizing 0.5% agarose gels prepared in a sodium barbital buffer, following the stipulated electrophoretic methodology. The procedure was carried out in a 0.075 M sodium barbital buffer at a constant voltage of 55 V for a duration of one h. The relative electrophoretic mobility (REM) was determined by calculating the ratio of the migration distance of oxidized LDL to that of native LDL.

[3] = system: primary mouse hepatocytes (PMH); test: Nile red staining of PMH from Acly flox/flox mice infected with Cre adenovirus; format: cell-based; conditions: 5 µM, 12 h
Description: as §1, with “([…],” for “(N1142,”, “Germany). Male and female Acly^flox/flox mice were used to isolate PMH and infected with adenovirus vectors carrying either Cre or GFP for 24 h.” for “Germany).”

liver gene expression = test: RNA sequencing of Apoe-/- mouse liver; format: in vivo; conditions: heat map
Source text: Total RNA was extracted, and cDNA libraries were generated to investigate differences in gene expression. The Illumina sequencing platform was employed for single-end sequencing of the libraries. HISAT2 software (version 2.0.5) was utilized to align the reads to the mouse reference genome in Ensembl. StringTie (version 1.3.3b) was employed to compute raw counts of genes. DESeq2 (version 1.20.0) software was used to normalize the count matrix. Gene sets were established based on each KEGG pathway term and the associated genes, with GSEA conducted using the Java GSEA platform (version 3.0). This analysis utilized the 'Signal2Noise' metric for ranking and adopted a permutation type specific to 'gene sets'. Gene sets displaying FDR values below 0.25 were deemed to hold statistical significance. The expression patterns of pivotal genes within the pathways enriched by GSEA were visually represented through heatmaps, generated by employing the "pheatmap" package within the R programming environment. The relevant data can be accessed via the Gene Expression Omnibus database, using the following accession number: GSE261858.

## COc1ccc(-c2cc(=O)c3c(O)cc(O)c(-c4cc(-c5cc(=O)c6c(O)cc(O)cc6o5)ccc4OC)c3o2)cc1 [ISOGK, Isoginkgetin]
[1]
  hepatic lipid levels (Nile Red staining): reduced hepatic lipid levels
[2]
  antioxidant activity against copper-induced LDL oxidation (REM): no antioxidant activity
[3]
  lipid deposition in PMH when ACLY abrogated or depleted (Nile red): did not further diminish lipid deposition
Liver gene expression
  expression of fatty acid and cholesterol biosynthesis genes Srebf1, Fasn, Acaca, Cyp51: significantly downregulated
